In data set [1] the test system is SMN2 minigene mRNA (SMN2-A minigene) in HEK293H cells. Description: SMN2 minigene mRNA splicing RT-qPCR assay in cultured cells. In kind it is cell-based, human. As to conditions: Homo sapiens, HEK293-H; concentration increasing full length SMN2 mRNA 1.5-fold relative to vehicle-treated cells; HEK293H cells with SMN2-A minigene, 24 hours, 7-point concentration data; read-out: EC1.5x for production of full length SMN2 mRNA. The essentials:
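HEK293H cells stably carrying SMN2-A minigene treated with compounds (7-point, 3.16-fold dilutions, duplicates) for 24 h at 37 °C. Full-length exon 7-containing minigene mRNA measured by multiplex RT-qPCR with GAPDH, normalized and expressed relative to vehicle (modified ΔΔCt); EC1.5× is concentration giving 1.5-fold increase.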
Background: Quantitative PCR measures a nucleic acid by following its amplification.

The subject of data set [2] is Smn protein in SMA patient fibroblast cells (GM03813). Briefly: Smn protein assay in cultured cells (SMN HTRF). To be noted: SMA patient fibroblast cells, 48 hours; for EC1.5x for Smn protein expression: 7-point concentration curve, SMN HTRF, concentration producing 1.5 times Smn protein vs DMSO vehicle control; for maximum fold (Fold) increase of Smn protein: 7-point concentration data, fold relative to vehicle control. Type of data set: cell-based, human. The method, boiled down: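 SMA patient fibroblasts (5,000/well, DMEM-10% FBS) treated 48 h at 37° C with 7-point, 3.16-fold compound series in triplicate; lysates read by SMN HTRF (665/620 nm ratio). Fold Smn increase over DMSO vehicle derived; EC1.5× is concentration giving 1.5-fold Smn, with maximum fold also reported.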
A general note: Time-resolved FRET reads energy transfer from a long-lived donor to a nearby acceptor.

Regarding `Cc1nc2ccc(-c3cc(=O)n4cc(N5CCN(C)CC5)ccc4n3)cc2s1` [Compound 256, 2-(2-methyl-1,3-benzothiazol-6-yl)-7-(4-methylpiperazin-1-yl)-4H-pyrido[1,2-a]pyrimidin-4-one], the melting point (commonly the temperature, or range, at which the solid turns liquid) lay in the range of 230 to 234 °C. In addition, the EC (1.5-fold increase) in data set [1] was 0.3 to 1 µM. For the same compound, in data set [2], the “EC1.5x for Smn protein expression” value is “** (an EC1.5× between >1 μM and ≤3 μM is indicated by two stars (**))”; the “maximum fold (Fold) increase of Smn protein” value (from here on “maximum fold (Fold) increase”) was “**** (a fold increase between >1.5 and ≤1.65 is indicated by four stars (****))”.

On to `COc1c(F)cc(-c2cc(=O)n3cc(N4CCNCC4)ccc3n2)cc1F` [Compound 183, 2-(3,5-difluoro-4-methoxyphenyl)-7-(piperazin-1-yl)-4H-pyrido[1,2-a]pyrimidin-4-one], for which the melting point lay in the range of 167 to 169 °C. Moreover, in data set [1], the EC (1.5-fold increase) fell in the range of 1 to 3 µM. Further, the “maximum fold (Fold) increase” value in data set [2] is “** (a fold increase between >1.2 and ≤1.35 is indicated by two stars (**))”.

`CSc1ccc(-c2cc(=O)n3cc(N4CCNCC4)ccc3n2)cc1F` [Compound 168, 2-[3-fluoro-4-(methylsulfanyl)phenyl]-7-(piperazin-1-yl)-4H-pyrido[1,2-a]pyrimidin-4-one] came in with a melting point of 174 to 176 °C. Further, in data set [1], the EC (1.5-fold increase) lay within 0.3 to 1 µM. Also, in data set [2], the “maximum fold (Fold) increase” value is listed as “* (A maximum fold increase of ≤1.2 is indicated by one star (*))”.

Regarding `CCCc1nc(C)cn2nc(-c3cc(=O)n4cc(N5C[C@@H](C)N[C@@H](C)C5)ccc4n3)cc12` [Compound 729, 7-[(3R,5S)-3,5-dimethylpiperazin-1-yl]-2-(6-methyl-4-propylpyrazolo[1,5-a]pyrazin-2-yl)-4H-pyrido[1,2-a]pyrimidin-4-one], the melting point lay within 249 to 251 °C. For the same compound, the EC (1.5-fold increase) in data set [1] lay within 0.1 to 0.3 µM. Also, in data set [2], the “EC1.5x for Smn protein expression” value was “*** (an EC1.5× between >0.3 μM and ≤1 μM is indicated by three stars (***))”; the “maximum fold (Fold) increase” value is “***** (a fold increase >1.65 is indicated by five stars (*****))”.

On to `COc1ccc(-c2cc(=O)n3cc(C4CCCNC4)ccc3n2)cc1OC` (stereo not shown) [Compound 406, 2-(3,4-dimethoxyphenyl)-7-(piperidin-3-yl)-4H-pyrido[1,2-a]pyrimidin-4-one], for which the melting point fell in the range of 126 to 129 °C. The EC (1.5-fold increase) in data set [1] lay in the range of 0.3 to 1 µM. In data set [2], the “EC1.5x for Smn protein expression” value was “* (An EC1.5× for Smn protein expression between >3 μM and ≤10 μM is indicated by one star (*))”; the “maximum fold (Fold) increase” value was “*** (a fold increase between >1.35 and ≤1.5 is indicated by three stars (***))”.

`Cc1cn2cc(-c3cc(=O)n4cc(N5CCC(N(C)C)CC5)ccc4n3)ccc2n1` [Compound 432, 7-[4-(dimethylamino)piperidin-1-yl]-2-(2-methylimidazo[1,2-a]pyridin-6-yl)-4H-pyrido[1,2-a]pyrimidin-4-one] displayed a melting point of 204 to 206 °C. Also, the EC (1.5-fold increase) in data set [1] is less than 0.1 µM. Besides, in data set [2], the “EC1.5x for Smn protein expression” value is reported as “**** (an EC1.5x≤0.3 μM is indicated by four stars (****))” and the “maximum fold (Fold) increase” value is listed as “***** (a fold increase >1.65 is indicated by five stars (*****))”.

In turn, `CCCc1nc(C)cn2nc(-c3cc(=O)n4cc(N5C[C@H]6CNC[C@H]6C5)ccc4n3)cc12` [Compound 761, 7-[(3aR,6aS)-hexahydropyrrolo[3,4-c]pyrrol-2(1H)-yl]-2-(6-methyl-4-propylpyrazolo[1,5-a]pyrazin-2-yl)-4H-pyrido[1,2-a]pyrimidin-4-one] registered a melting point of 212 to 214 °C. In addition, the EC (1.5-fold increase) in data set [1] is less than 0.1 µM. Moreover, in data set [2], the “EC1.5x for Smn protein expression” value is reported as “**** (an EC1.5x≤0.3 μM is indicated by four stars (****))” and the “maximum fold (Fold) increase” value is recorded as “***** (a fold increase >1.65 is indicated by five stars (*****))”.

On to `Cc1ccc(-c2cc(=O)n3cc(N4CCNCC4)ccc3n2)cc1C` [Compound 55, 2-(3,4-dimethylphenyl)-7-(piperazin-1-yl)-4H-pyrido[1,2-a]pyrimidin-4-one], for which the melting point was in the range of 186 to 188 °C. Also, in data set [1], the EC (1.5-fold increase) lay in the range of 1 to 3 µM. In data set [2], the “maximum fold (Fold) increase” value was “* (A maximum fold increase of ≤1.2 is indicated by one star (*))”.

`CCN1CCC(c2ccc3nc(-c4cc(C)c5nc(C)cn5c4)cc(=O)n3c2)CC1` [Compound 615, 2-(2,8-dimethylimidazo[1,2-a]pyridin-6-yl)-7-(1-ethylpiperidin-4-yl)-4H-pyrido[1,2-a]pyrimidin-4-one] came in with a melting point of 202 to 204 °C. Moreover, the EC (1.5-fold increase) in data set [1] was less than 0.1 µM. Further, in data set [2], the “EC1.5x for Smn protein expression” value was “**** (an EC1.5x≤0.3 μM is indicated by four stars (****))”; the “maximum fold (Fold) increase” value was “**** (a fold increase between >1.5 and ≤1.65 is indicated by four stars (****))”.

As for `CCCN1CC=C(c2ccc3nc(-c4cc(F)c5nc(C)oc5c4)cc(=O)n3c2)CC1` [Compound 319, 2-(4-fluoro-2-methyl-1,3-benzoxazol-6-yl)-7-(1-propyl-1,2,3,6-tetrahydropyridin-4-yl)-4H-pyrido[1,2-a]pyrimidin-4-one], the melting point lay in the range of 159 to 162 °C. Also, the EC (1.5-fold increase) in data set [1] is less than 0.1 µM. Moreover, in data set [2], the “EC1.5x for Smn protein expression” value is “**** (an EC1.5x≤0.3 μM is indicated by four stars (****))”; the “maximum fold (Fold) increase” value is “**** (a fold increase between >1.5 and ≤1.65 is indicated by four stars (****))”.

Consider `CCN1CCC(c2ccc3nc(-c4cc(C)c5nn(C)cc5c4)cc(=O)n3c2)CC1` [Compound 753, 2-(2,7-dimethyl-2H-indazol-5-yl)-7-(1-ethylpiperidin-4-yl)-4H-pyrido[1,2-a]pyrimidin-4-one], for which the melting point was in the range of 162 to 164 °C. Also, the EC (1.5-fold increase) in data set [1] is less than 0.1 µM. In data set [2], the “EC1.5x for Smn protein expression” value is “**** (an EC1.5x≤0.3 μM is indicated by four stars (****))” and the “maximum fold (Fold) increase” value is given as “***** (a fold increase >1.65 is indicated by five stars (*****))”.

As to `O=c1cc(-c2ccc(O)c(OC(F)F)c2)nc2ccc(N3CCNCC3)cn12` [Compound 100, 2-[3-(difluoromethoxy)-4-hydroxyphenyl]-7-(piperazin-1-yl)-4H-pyrido[1,2-a]pyrimidin-4-one], the melting point lay in the range of 233 to 237 °C. Moreover, the EC (1.5-fold increase) in data set [1] was in the range of 0.3 to 1 µM. In data set [2], the “EC1.5x for Smn protein expression” value is “*** (an EC1.5× between >0.3 μM and ≤1 μM is indicated by three stars (***))”; the “maximum fold (Fold) increase” value is recorded as “***** (a fold increase >1.65 is indicated by five stars (*****))”.

In turn, `CCc1cc(-c2cc(=O)n3cc(N4CCN(C5CCC5)[C@H](C)C4)ccc3n2)cn2cc(C)nc12` [Compound 650, 7-[(3R)-4-cyclobutyl-3-methylpiperazin-1-yl]-2-(8-ethyl-2-methylimidazo[1,2-a]pyridin-6-yl)-4H-pyrido[1,2-a]pyrimidin-4-one] had a melting point of 209 to 212 °C. In data set [1], the EC (1.5-fold increase) is less than 0.1 µM. For the same compound, in data set [2], the “EC1.5x for Smn protein expression” value is given as “**** (an EC1.5x≤0.3 μM is indicated by four stars (****))” and the “maximum fold (Fold) increase” value was “***** (a fold increase >1.65 is indicated by five stars (*****))”.

The record behind these values is US11753407B2, “Compounds for treating spinal muscular atrophy” (PTC Therapeutics, Inc., priority 2012, dated 2023).
